These results are taken from patent US5821246A, “Aniline derivatives” (Zeneca Limited, priority 1994, dated 1998).

Structures can show the parent of a compound that is named as a salt.

Assay [1] has as its system human naso-pharyngeal cancer cell line KB. As to the kind of experiment: Test (b): inhibition of the EGF-stimulated growth of the human naso-pharyngeal cancer cell line KB. In kind it is cell-based. Particulars: 72 h, KB cells, EGF (10 ng/ml), 3 days, MTT. The method, then:
(b) An in vitro assay which determines the ability of a test compound to inhibit the EGF-stimulated growth of the human naso-pharyngeal cancer cell line KB.
KB cells were seeded into wells at a density of 1×10^4 -1.5×10^4 cells per well and grown for 24 hours in DHEM supplemented with 5% FCS (charcoal-stripped). Cell growth was determined after incubation for 3 days by the extent of metabolism of MTT tetrazolium dye to furnish a bluish colour. Cell growth was then determined in the presence of EGF (10 ng/ml) or in the presence of EGF (10 ng/ml) and a test compound at a range of concentrations. An IC50 value could then be calculated.

Assay [2] deals with T1, EGF receptor tyrosine kinase (Homo sapiens, UniProt P00533).
T1 construct: Receptor tyrosine kinase was obtained in partially purified form from A-431 cells; endogenous in cells; host or cells: A-431 cells (human vulval carcinoma)
T1 sequence (P00533 25-1210): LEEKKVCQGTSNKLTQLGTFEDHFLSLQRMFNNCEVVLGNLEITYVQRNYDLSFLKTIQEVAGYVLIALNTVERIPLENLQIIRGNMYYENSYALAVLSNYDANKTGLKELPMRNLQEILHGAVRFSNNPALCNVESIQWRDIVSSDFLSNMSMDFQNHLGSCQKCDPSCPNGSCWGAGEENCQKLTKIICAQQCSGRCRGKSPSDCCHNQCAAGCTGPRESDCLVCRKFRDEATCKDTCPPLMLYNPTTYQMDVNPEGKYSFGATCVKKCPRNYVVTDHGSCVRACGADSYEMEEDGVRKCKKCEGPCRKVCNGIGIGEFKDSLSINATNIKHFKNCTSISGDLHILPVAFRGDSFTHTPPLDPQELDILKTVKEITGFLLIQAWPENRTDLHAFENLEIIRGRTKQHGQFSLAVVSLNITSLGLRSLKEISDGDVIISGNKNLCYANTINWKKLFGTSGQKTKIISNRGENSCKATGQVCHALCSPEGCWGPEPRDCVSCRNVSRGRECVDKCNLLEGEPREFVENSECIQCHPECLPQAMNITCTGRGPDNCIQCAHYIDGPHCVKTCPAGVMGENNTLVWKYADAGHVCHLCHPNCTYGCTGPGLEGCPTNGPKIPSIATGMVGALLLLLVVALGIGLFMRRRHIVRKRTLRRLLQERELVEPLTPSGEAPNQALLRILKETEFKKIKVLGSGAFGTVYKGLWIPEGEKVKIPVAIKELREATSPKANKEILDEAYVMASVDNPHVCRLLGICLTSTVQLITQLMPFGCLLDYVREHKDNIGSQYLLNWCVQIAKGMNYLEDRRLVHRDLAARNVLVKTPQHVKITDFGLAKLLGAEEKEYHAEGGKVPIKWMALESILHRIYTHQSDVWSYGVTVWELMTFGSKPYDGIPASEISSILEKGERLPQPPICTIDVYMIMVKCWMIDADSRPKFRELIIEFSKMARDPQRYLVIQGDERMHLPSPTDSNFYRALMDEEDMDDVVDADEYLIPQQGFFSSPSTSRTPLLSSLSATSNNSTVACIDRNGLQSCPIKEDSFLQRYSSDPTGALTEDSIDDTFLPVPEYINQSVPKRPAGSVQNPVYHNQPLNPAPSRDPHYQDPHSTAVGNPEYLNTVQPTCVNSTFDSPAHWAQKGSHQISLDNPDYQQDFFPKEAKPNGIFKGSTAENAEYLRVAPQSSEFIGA
As to the kind of experiment: Test (a): in vitro inhibition of the enzyme EGF receptor tyrosine kinase (partially purified from A-431 cells). In kind it is biochemical. The conditions noted are these: EGF receptor tyrosine kinase from A-431 cells. The method, then: (a) An in vitro assay which determines the ability of a test compound to inhibit the enzyme EGF receptor tyrosine kinase. Receptor tyrosine kinase was obtained in partially purified form from A-431 cells (derived from human vulval carcinoma) by procedures related to those described by Carpenter et al., J. Biol. Chem., 1979, 254, 4884, Cohen et al., J. Biol. Chem., 1982, 257, 1523 and by Braun et al., J. Biol. Chem., 1984, 259, 2051.
A-431 cells were grown to confluence using Dulbecco's modified Eagle's medium (DHEM) containing 5% fetal calf serum (FCS). The obtained cells were homogenised in a hypotonic borate/EDTA buffer at pH 10.1. The homogenate was centrifuged at 400 g for 10 minutes at 0°-4° C. The supernatant was centrifuged at 25,000 g for 30 minutes at 0°-4° C. The pelleted material was suspended in 30 mM Hepes buffer at pH 7.4 containing 5% glycerol, 4 mM benzamidine and 1% Triton X-100, stirred for 1 hour at 0°-4° C., and recentrifuged at 100,000 g for 1 hour at 0°-4° C. The supernatant, containing solubilised receptor tyrosine kinase, was stored in liquid nitrogen.
For test purposes 40 μl of the enzyme solution so obtained was added to a mixture of 400 μl of a mixture of 150 mM Hepes buffer at pH 7.4, 500 μM sodium orthovanadate, 0.1% Triton X-100, 10% glycerol, 200 μl water, 80 μl of 25 mH DTT and 80 μl of a mixture of 12.5 mM manganese chloride, 125 mM magnesium chloride and distilled water. There was thus obtained the test enzyme solution.
Each test compound was dissolved in dimethylsulphoxide (DMSO) to give a 50 mM solution which was diluted with 40 mM Hepes buffer containing 0.1% Triton X-100, 10% glycerol and 10% DMSO to give a 500 μM solution. Equal volumes of this solution and a solution of epidermal growth factor (EGF; 20 μg/ml) were mixed.
[γ-^32 P]ATP (3000 Ci/mM, 250 μCi) was diluted to a volume of 2 ml by the addition of a solution of ATP (100 μM) in distilled water. An equal volume of a 4 mg/ml solution of the peptide Arg-Arg-Leu-Ile-Glu-Asp-Ala-Glu-Tyr-Ala-Ala-Arg-Gly in a mixture of 40 mH Hepes buffer at pH 7.4, 0.1% Triton X-100 and 10% glycerol was added.
The test compound/EGF mixture solution (5 μl) was added to the test enzyme solution (10 μl) and the mixture was incubated at 0°-4° C. for 30 minutes. The ATP/peptide mixture (10 μl) was added and the mixture was incubated at 25° C. for 10 minutes. The phosphorylation reaction was terminated by the addition of 5% trichloroacetic acid (40 μl) and bovine serum albumin (BSA; 1 mg/ml, 5 μl). The mixture was allowed to stand at 4° C. for 30 minutes and then centrifuged. An aliquot (40 μl) of the supernatant was placed onto a strip of Whatman p 81 phosphocellulose paper. The strip was washed in 75 mH phosphoric acid (4×10 ml) and blotted dry. Radioactivity present in the filter paper was measured using a liquid scintillation counter (Sequence A). The reaction sequence was repeated in the absence of the EGF (Sequence B) and again in the absence of the test compound (Sequence C).
Receptor tyrosine kinase inhibition was calculated as follows: [formula]
The extent of inhibition was then determined at a range of concentrations of test compound to give an IC50 value.

The subject of assay [3] is liver hepatocyte growth caused by the administration of the growth factor TGFα. Put plainly: Test (c): in vivo inhibition of TGFα-stimulated liver hepatocyte growth in male rats (BrdU uptake). Particulars: Rattus norvegicus, usually oral, TGFα 400 μg/kg subcutaneously, approximate ED50, BrdU uptake. As to the method:
(c) An in vivo assay in a group of male rats which determines the ability of a test compound (usually administered orally as a ball-milled suspension in 0.5% polysorbate) to inhibit the stimulation of liver hepatocyte growth caused by the administration of the growth factor TGFα (400 μg/kg subcutaneously, usually dosed twice, 3 and 7 hours respectively after the administration of the test compound).
In a control group of rats, the administration of TGFα causes on average a 5-fold stimulation of liver hepatocyte growth.
Cell-growth in the control and test animals is determined as follows:
On the morning of the day after the dosing of the test compound (or 0.5% polysorbate in the control group), the animals are dosed with bromodeoxyuridine (BrdU; 100 mg/kg intraperitoneally). The animals are killed four hours later and the livers are excised.
Further tests were carried out using a range of doses of the test compounds to allow the calculation of an approximate ED50 value for the inhibition of liver hepatocyte proliferation as determined by inhibition of the uptake of BrdU.

The subject of assay [4] is EGF receptor tyrosine kinase. Particulars: Fry et al., Science, 1994, 265, 1093; cited from earlier work.
For assay [5], the system named is human mammary carcinoma which expresses EGF receptor tyrosine kinase. The conditions noted are these: athymic nude mice; Toi et al., 1990; cited from earlier work.
The subject of assay [6] is another carcinoma which does not express EGF receptor tyrosine kinase. Particulars: Toi et al., 1990; cited from earlier work.

Consider `COc1cc2ncnc(Nc3ccc(Cc4ccccc4)c(Cl)c3)c2cc1OC.I` [4-(4-benzyl-3-chloroanilino)-6,7-dimethoxyquinazoline hydroiodide salt], for which the IC50 (usually the concentration that inhibits the measured activity by half) in assay [1] was determined as 1200 nM; in assay [2], 100 nM. Further, in assay [3], the median effective dose (ED50) (commonly the dose that gives a 50% effect, or the effect in half of the subjects) was under 12.5 mg/kg.

Regarding `COc1cc2ncnc(Nc3ccc(OCc4ccccn4)c(C)c3)c2cc1OC.Cl.Cl` [6,7-dimethoxy-4-[3-methyl-4-(2-pyridylmethoxy)anilino]quinazoline dihydrochloride salt], the IC50 in assay [1] amounted to 930 nM; in assay [2], 40 nM. In assay [3], this molecule displayed an ED50 of 5 mg/kg.

Consider `COc1cc2ncnc(Nc3cccc(Br)c3)c2cc1OC` [4-(3'-bromoanilino)-6,7-dimethoxyquinazoline], for which the “inhibitor of EGF receptor tyrosine kinase” value in assay [4] was “highly potent inhibitor”.

For `COc1cc2ncnc(Nc3ccc(Sc4nccn4C)c(Cl)c3)c2cc1OC` [4-[3-chloro-4-(1-methylimidazol-2-ylthio)anilino]-6,7-dimethoxyquinazolinedihydrochloride salt], the IC50 in assay [1] amounted to 200 nM; in assay [2] it was 7 nM. Also, in assay [3], the ED50 is under 12.5 mg/kg.

`COc1cc2ncnc(Nc3ccc(OCc4ccccn4)c(C)c3)c2cc1OCCCN1CCOCC1` [7-methoxy-4-[3-methyl-4-(2-pyridylmethoxy)anilino]-6-(3-morpholinopropoxy)quinazoline]: the half-inhibitory concentration (IC50) was found to be 2090 nM in assay [1] and 450 nM in assay [2].

As for `COc1cc2ncnc(Nc3ccc(OCc4ccccn4)c(C)c3)c2cc1OCCCN(C)C` [6-(3-dimethylaminopropoxy)-7-methoxy-4-[3-methyl-4-(2-pyridylmethoxy)anilino]quinazoline], the IC50 worked out at 430 nM in assay [1] and 66 nM in assay [2].

For the molecule `COc1cc2ncnc(Nc3ccc(Sc4ccccc4)c(Cl)c3)c2cc1OC` [4-(3-chloro-4-phenylthioanilino)-6,7-dimethoxyquinazoline], the figures for the IC50 in assay [1] and in assay [2] were 1300 nM and 80 nM, respectively. In assay [3], this molecule had an ED50 of 12.5 mg/kg.

Turning to `O=CN/C=C/c1cc(O)ccc1O` [erbstatin], the “growth of transplanted carcinoma expressing EGF receptor tyrosine kinase” value in assay [5] is “specifically attenuates the growth”. In assay [6], the “growth of carcinoma not expressing EGF receptor tyrosine kinase” value is recorded as “without effect on the growth”.

Turning to `COc1cc2ncnc(Nc3ccc(C(=O)c4ccccc4)c(Cl)c3)c2cc1OC.Cl` [4-(4-benzoyl-3-chloroanilino)-6,7-dimethoxyquinazoline hydrochloride salt], the IC50 in assay [1] was 380 nM; in assay [2], 30 nM. This molecule registered an ED50 in assay [3] of under 5 mg/kg.
